Assay [1] concerns the target Mitogen-activated protein kinase 14 (Homo sapiens, UniProt Q16539). The assay is described as follows: Inhibition of p38 alpha in human A-375 cells at 0.05 uM by KiNativ Profiling analysis relative to control. It is filed as cell-based.
In assay [2] the target is Testis-specific serine/threonine-protein kinase 1 (Homo sapiens) (UniProt Q9BXA7). The assay is described as follows: Inhibition of TSSK1B (unknown origin) at 10 uM by Ambit Kinomescan binding assay.
Assay [3] has as its target Ribosomal protein S6 kinase alpha-3 (Homo sapiens) (UniProt P51812). The assay is described as follows: Inhibition of N-terminal RPS6KA3 kinase domain 1 (unknown origin) at 10 uM by Ambit Kinomescan binding assay.
Assay [4] in a line: Inhibition of MARK2/3 K2 labeling site in human Huh-7 cells at 10 uM by KiNativ Profiling analysis relative to control. The settings on record: condition cancer.
Assay [5] addresses MAST1/MAST2 (Homo sapiens) (UniProt Q9Y2H9+Q6P0Q8). The assay is described as follows: Inhibition of MAST1/2 K2 labeling site in human Huh-7 cells at 1 uM by KiNativ Profiling analysis relative to control. The assay is classed as cell-based.
Assay [6] has as its target T1, NUAK family SNF1-like kinase 1 (Homo sapiens) (UniProt O60285).
T1 sequence (whole entry): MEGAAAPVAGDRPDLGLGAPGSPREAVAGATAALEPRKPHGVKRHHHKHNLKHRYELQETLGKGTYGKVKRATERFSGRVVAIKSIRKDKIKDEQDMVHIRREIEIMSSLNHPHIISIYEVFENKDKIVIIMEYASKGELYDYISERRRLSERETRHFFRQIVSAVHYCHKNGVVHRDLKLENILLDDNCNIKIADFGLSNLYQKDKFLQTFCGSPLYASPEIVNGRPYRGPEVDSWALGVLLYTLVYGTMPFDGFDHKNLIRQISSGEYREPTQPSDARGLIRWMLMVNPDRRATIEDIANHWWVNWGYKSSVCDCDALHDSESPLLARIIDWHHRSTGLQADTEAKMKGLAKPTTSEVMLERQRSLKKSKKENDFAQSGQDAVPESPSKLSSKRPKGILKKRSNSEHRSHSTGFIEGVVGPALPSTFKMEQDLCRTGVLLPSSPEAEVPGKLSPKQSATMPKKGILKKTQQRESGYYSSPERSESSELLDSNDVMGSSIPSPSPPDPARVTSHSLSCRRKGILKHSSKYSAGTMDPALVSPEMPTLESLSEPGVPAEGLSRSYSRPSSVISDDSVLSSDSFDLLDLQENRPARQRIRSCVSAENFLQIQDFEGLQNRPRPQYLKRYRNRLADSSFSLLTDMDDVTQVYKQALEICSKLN
The assay is described as follows: Inhibition of NuaK1 K2 labeling site in human Huh-7 cells at 1 uM by KiNativ Profiling analysis relative to control. The assay is classed as cell-based.

In assay [7] the target is Dual specificity testis-specific protein kinase 1 (Homo sapiens) (UniProt Q15569). The assay is described as follows: Inhibition of TESK1 (unknown origin) at 10 uM by Ambit Kinomescan binding assay.
Dual specificity testis-specific protein kinase 1 (Homo sapiens), sequence (Q15569 whole entry, looked up, the tested form may be a part): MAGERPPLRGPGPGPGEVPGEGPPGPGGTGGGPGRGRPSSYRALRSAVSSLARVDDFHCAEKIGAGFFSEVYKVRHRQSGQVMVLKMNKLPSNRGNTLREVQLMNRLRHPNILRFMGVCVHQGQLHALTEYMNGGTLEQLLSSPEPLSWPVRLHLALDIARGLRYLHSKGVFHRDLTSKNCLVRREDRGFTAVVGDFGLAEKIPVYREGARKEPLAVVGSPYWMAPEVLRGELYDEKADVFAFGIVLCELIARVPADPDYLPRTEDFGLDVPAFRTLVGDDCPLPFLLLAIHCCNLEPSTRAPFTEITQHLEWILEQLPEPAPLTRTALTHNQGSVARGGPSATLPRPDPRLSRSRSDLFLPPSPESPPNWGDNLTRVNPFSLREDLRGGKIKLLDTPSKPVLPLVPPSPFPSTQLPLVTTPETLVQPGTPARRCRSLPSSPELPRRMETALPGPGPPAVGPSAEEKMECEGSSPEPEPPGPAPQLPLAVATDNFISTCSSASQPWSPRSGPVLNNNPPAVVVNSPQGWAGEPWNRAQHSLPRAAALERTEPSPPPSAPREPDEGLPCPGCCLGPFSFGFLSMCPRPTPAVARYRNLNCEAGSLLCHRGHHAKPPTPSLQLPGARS
Assay [8] has as its target Ribosomal protein S6 kinase alpha-3 (Homo sapiens) (UniProt P51812). The assay is described as follows: Inhibition of RSK2 domain2 Lys2 labeling site harbouring DLKPSNILYVDESGNPESIR in human Huh-7 cells at 1 uM by KiNativ Profiling analysis relative to control. The assay is classed as cell-based.
The target of assay [9] is T2, Phosphatidylinositol 5-phosphate 4-kinase type-2 gamma (Homo sapiens) (UniProt Q8TBX8).
T2 sequence (whole entry): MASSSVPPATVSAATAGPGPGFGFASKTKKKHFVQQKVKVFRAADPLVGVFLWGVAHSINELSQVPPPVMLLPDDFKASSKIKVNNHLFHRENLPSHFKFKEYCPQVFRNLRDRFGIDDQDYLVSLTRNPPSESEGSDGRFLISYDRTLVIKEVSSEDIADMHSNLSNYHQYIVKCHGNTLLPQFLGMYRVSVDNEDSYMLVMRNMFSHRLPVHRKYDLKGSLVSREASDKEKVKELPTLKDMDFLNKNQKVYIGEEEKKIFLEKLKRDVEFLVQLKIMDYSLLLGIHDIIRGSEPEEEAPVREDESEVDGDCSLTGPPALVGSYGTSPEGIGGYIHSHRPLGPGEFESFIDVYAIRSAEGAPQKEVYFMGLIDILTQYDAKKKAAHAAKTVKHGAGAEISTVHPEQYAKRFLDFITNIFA
The assay is described as follows: Inhibition of PIP4K2C ATP labeling site harbouring VKELPTLKDMDFLNK in human Huh-7 cell lysate at 1 uM by KiNativ Profiling analysis relative to control. The assay is classed as subcellular.

Active and inactive are the calls of the source. The calls are words filed in the database; no cut-off is given here.

Ribosomal protein S6 kinase alpha-3 (Homo sapiens), sequence (P51812 whole entry, the tested form may be a part): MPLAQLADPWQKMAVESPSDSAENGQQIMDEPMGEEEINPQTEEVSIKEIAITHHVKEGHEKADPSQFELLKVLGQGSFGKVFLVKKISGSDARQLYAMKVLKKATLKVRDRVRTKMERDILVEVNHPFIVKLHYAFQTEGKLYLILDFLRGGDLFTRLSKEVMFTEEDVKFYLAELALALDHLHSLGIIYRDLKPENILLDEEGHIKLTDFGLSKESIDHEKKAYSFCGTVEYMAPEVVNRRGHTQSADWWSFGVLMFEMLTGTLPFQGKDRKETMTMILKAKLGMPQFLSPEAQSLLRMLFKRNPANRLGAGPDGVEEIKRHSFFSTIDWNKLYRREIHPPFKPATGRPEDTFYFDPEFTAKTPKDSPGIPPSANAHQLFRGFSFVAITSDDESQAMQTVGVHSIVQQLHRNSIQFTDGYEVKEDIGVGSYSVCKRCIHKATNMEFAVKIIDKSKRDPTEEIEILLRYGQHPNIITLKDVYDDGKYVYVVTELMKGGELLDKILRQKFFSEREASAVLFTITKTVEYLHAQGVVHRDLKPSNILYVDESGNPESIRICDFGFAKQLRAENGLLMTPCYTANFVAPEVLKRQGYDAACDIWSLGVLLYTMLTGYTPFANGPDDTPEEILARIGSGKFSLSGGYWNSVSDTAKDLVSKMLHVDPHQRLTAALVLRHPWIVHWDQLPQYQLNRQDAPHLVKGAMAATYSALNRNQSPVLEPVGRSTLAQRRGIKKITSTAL
Mitogen-activated protein kinase 14, sequence (Q16539 whole entry): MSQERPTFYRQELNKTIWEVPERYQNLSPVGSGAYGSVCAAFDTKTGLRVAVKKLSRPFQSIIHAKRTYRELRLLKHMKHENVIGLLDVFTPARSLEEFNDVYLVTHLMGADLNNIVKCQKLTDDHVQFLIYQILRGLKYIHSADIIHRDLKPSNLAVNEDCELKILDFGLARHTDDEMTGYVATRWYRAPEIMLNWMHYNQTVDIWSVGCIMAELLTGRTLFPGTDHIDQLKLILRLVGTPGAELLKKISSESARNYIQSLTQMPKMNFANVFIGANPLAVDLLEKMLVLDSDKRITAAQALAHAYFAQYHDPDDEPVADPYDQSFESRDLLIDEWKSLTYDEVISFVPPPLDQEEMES
MAST1/MAST2 (Homo sapiens), sequence (Q6P0Q8 whole entry, looked up): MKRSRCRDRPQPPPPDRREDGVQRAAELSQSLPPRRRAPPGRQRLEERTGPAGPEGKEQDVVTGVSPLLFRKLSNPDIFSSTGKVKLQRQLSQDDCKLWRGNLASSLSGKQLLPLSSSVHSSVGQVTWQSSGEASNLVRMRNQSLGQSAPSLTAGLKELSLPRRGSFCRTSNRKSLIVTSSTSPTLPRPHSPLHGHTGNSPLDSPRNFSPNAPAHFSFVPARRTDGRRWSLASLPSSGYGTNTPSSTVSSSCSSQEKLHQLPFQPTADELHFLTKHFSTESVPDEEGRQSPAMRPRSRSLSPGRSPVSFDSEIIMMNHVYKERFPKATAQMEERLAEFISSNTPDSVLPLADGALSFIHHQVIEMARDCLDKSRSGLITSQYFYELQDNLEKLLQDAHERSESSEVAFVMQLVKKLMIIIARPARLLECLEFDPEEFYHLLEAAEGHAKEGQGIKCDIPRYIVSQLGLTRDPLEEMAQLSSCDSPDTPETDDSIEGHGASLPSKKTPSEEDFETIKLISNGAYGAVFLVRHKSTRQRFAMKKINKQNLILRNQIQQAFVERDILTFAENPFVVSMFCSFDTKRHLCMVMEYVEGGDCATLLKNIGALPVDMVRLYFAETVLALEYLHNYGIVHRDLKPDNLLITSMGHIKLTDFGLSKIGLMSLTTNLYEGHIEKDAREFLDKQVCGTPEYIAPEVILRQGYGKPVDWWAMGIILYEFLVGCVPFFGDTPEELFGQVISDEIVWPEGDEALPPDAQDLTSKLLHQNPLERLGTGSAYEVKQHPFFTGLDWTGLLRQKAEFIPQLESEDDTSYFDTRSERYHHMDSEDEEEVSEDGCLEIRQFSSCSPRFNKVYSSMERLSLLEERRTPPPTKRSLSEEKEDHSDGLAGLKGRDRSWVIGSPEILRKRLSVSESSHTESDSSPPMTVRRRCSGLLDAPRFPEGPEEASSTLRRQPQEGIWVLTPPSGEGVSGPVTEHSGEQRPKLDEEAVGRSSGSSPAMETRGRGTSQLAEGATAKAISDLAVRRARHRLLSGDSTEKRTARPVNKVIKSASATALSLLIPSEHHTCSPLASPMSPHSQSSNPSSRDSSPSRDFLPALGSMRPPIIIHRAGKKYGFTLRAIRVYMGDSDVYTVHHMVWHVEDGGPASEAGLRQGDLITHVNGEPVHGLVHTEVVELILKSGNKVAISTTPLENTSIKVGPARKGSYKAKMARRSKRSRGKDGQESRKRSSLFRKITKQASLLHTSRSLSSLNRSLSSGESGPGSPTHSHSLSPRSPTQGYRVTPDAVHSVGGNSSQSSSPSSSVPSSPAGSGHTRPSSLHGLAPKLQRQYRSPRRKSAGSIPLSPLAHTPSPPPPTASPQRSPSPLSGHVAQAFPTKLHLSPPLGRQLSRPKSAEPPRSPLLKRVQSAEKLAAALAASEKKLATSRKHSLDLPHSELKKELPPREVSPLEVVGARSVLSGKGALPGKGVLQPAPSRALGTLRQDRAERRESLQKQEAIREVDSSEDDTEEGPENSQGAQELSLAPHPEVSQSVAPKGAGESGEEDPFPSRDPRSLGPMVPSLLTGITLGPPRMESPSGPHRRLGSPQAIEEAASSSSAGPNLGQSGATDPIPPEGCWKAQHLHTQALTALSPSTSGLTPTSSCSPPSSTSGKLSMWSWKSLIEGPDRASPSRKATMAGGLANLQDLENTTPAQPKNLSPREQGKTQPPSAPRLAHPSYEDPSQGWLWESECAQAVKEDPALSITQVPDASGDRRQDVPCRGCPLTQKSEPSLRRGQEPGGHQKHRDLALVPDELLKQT
MAST1/MAST2 (Homo sapiens), sequence (Q9Y2H9 whole entry, looked up): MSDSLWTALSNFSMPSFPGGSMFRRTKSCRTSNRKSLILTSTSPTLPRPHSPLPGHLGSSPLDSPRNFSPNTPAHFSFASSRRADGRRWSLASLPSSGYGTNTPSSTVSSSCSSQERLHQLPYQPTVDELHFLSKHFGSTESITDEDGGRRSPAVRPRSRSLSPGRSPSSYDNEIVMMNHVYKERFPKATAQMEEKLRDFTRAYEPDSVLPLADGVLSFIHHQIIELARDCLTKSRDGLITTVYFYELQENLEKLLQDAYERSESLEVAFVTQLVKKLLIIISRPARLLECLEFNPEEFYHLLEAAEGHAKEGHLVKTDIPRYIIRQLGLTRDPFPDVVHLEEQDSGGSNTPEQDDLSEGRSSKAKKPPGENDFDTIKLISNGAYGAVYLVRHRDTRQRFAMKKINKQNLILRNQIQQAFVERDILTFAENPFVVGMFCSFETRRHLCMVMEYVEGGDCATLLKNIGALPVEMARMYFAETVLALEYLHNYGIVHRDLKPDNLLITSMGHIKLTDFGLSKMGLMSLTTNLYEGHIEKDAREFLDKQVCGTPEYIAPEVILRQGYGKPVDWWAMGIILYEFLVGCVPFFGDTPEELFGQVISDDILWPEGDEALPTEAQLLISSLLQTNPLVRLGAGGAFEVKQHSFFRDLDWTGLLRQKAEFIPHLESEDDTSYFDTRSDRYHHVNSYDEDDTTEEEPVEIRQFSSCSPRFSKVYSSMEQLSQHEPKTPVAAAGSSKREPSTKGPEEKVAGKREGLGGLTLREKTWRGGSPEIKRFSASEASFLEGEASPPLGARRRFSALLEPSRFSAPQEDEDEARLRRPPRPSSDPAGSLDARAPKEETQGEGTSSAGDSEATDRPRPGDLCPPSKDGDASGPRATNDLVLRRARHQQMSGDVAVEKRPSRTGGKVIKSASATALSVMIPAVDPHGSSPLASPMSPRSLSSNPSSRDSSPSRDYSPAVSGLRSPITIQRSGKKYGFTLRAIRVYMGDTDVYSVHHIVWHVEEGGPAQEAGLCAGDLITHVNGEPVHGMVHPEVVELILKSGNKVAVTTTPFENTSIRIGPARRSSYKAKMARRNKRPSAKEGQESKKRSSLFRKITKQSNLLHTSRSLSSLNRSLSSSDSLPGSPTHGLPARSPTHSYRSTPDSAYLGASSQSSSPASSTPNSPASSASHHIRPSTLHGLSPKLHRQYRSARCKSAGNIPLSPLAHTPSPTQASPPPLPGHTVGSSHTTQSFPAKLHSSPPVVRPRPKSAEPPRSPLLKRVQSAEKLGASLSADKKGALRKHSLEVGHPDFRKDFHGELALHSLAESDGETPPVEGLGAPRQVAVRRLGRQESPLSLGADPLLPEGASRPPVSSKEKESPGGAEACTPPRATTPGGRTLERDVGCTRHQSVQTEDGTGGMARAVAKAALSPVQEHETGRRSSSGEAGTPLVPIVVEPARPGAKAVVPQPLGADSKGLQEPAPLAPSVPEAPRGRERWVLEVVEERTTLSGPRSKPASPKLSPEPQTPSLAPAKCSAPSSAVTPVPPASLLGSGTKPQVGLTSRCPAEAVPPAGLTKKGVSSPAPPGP

`CCN1CCN(Cc2ccc(NC(=O)c3ccc(C)c(/C=C/c4cnc5[nH]ccc5c4OC)c3)cc2C(F)(F)F)CC1`: the inhibition in assay [1] was determined as 73.1%.

As to `CCN1CCN(Cc2ccc(NC(=O)c3ccc(C)c(Oc4ccnc5[nH]ccc45)c3)cc2C(F)(F)F)CC1`, the inhibition result in assay [2], in assay [3] and in assay [7] was “inactive” each time. Further, in assay [4], the inhibition at 10 µM amounted to 11.8%. The results for the inhibition in assay [5] and in assay [6] were -7.1% and -9.8%, respectively.

In the case of `CNc1cc(Oc2cc(C(=O)Nc3cc(N4CCN(C)CC4)cc(C(F)(F)F)c3)ccc2C)ncn1`, the inhibition in assay [8] came to 11.7%; in assay [9], 11.6%.

One may read the inhibition as the change of the read-out against control, counted positive when it falls.

These data come from ChEMBL document CHEMBL5696442, “Discovery of type II inhibitors of TGFβ-activated kinase 1 (TAK1) and mitogen-activated protein kinase kinase kinase kinase 2 (MAP4K2)” (J Med Chem, 2015).
